Assay results reported in patent publication US8153795B2, “Substituted 1-oxa-3,8-diazaspiro[4.5]-decan-2-one-compounds and the use thereof for producing drugs” (Gruenenthal GmbH, priority 2005, dated 2012).

Target: T1, 5-HT transporter (Rattus norvegicus, UniProt P31652)
T1 construct: from tissue; host or cells: rat brain synaptosomes (P2 fraction) from medulla and pons
Test: 5-HT uptake inhibition in rat brain synaptosomes (medulla and pons), [3H]-5-HT
Assay type: biochemical
In short: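 Freshly isolated P2 synaptosomes taken from rat hypothalamus (NA) or medulla/pons (5-HT) were incubated at room temperature under O2 with [3H]-NA for 7.5 min or [3H]-5-HT for 5 min. Uptake was measured as filter-retained radioactivity by scintillation counting.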

T1 sequence (P31652 whole entry): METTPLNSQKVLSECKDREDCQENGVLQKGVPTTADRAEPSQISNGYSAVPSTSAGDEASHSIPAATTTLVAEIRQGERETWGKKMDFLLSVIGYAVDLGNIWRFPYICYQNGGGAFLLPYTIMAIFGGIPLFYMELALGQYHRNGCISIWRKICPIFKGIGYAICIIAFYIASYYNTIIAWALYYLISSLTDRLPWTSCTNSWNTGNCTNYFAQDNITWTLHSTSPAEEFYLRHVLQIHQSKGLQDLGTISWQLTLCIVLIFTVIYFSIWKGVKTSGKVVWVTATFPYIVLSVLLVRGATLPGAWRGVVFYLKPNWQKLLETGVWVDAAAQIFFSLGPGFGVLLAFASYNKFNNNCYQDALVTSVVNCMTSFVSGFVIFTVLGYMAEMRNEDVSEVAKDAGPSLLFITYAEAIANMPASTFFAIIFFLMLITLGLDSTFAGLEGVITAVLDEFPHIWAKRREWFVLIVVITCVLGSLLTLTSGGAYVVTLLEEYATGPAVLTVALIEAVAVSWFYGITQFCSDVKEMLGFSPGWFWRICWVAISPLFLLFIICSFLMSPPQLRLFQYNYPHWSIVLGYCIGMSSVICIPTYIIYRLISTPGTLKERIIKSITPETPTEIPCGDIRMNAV

First: CCCCOc1ccc(CS(=O)(=O)N2CCC3(CC2)CN(Cc2cc(C)cc(C)c2)C(=O)O3)cc1 [Example 103, 8-(4-butoxybenzylsulfonyl)-3-(3,5-dimethylbenzyl)-1-oxa-3,8-diazaspiro[4.5]decan-2-one]
Second: COc1cc(C)c(CS(=O)(=O)N2CCC3(CC2)CN(Cc2cc(C)cc(C)c2)C(=O)O3)c(C)c1C [Example 114, 3-(3,5-dimethylbenzyl)-8-(4-methoxy-2,3,6-trimethylbenzylsulfonyl)-1-oxa-3,8-diazaspiro[4.5]decan-2-one]
The inhibition at 10 µM of the first is higher: 83% for the first, 73% for the second.

Compared with O=C1OC2(CCN(C(=O)c3ccc(Cl)nc3)CC2)CN1Cc1ccc2ccccc2c1 [Example 120, 8-(6-chloropyridine-3-carbonyl)-3-naphthalen-2-ylmethyl-1-oxa-3,8-diazaspiro[4.5]decan-2-one], COc1cccc(CC(=O)N2CCC3(CC2)CN(Cc2ccc4ccccc4c2)C(=O)O3)c1 [Example 141, 8-[2-(3-methoxyphenyl)acetyl]-3-naphthalen-2-ylmethyl-1-oxa-3,8-diazaspiro[4.5]decan-2-one] is higher in inhibition at 10 µM: 66% for the first, 78% for the second.

CCCCOc1ccc(NC(=O)N2CCC3(CC2)CN(Cc2ccc(I)cc2)C(=O)O3)cc1 [Example 41, 3-(4-iodobenzyl)-2-oxo-1-oxa-3,8-diazaspiro[4.5]decane-8-carboxylic acid (4-butoxyphenyl)amide] and COc1ccc(NC(=O)N2CCC3(CC2)CN(Cc2ccc(C#N)cc2)C(=O)O3)cc1 [Example 47, 3-(4-cyanobenzyl)-2-oxo-1-oxa-3,8-diazaspiro[4.5]decane-8-carboxylic acid (4-methoxyphenyl)amide] are the same in inhibition at 10 µM: 49% for the first, 49% for the second.

First: Cc1cc(C)cc(CN2CC3(CCN(C(=O)c4cccc(Cl)c4)CC3)OC2=O)c1 [Example 126, 8-(3-chlorobenzoyl)-3-(3,5-dimethylbenzyl)-1-oxa-3,8-diazaspiro[4.5]decan-2-one]
Second: Cc1cc(C)cc(CN2CC3(CCN(C(=O)c4ccc(Br)cc4)CC3)OC2=O)c1 [Example 124, 8-(4-bromobenzoyl)-3-(3,5-dimethylbenzyl)-1-oxa-3,8-diazaspiro[4.5]decan-2-one]
The inhibition at 10 µM of the first is lower: 64% for the first, 72% for the second.

O=C1OC2(CCN(C(=O)c3ccccn3)CC2)CN1Cc1cccc(Br)c1 [Example 129, 3-(3-bromobenzyl)-8-(pyridine-2-carbonyl)-1-oxa-3,8-diazaspiro[4.5]decan-2-one] and CCSc1ncccc1C(=O)N1CCC2(CC1)CN(Cc1cccc(Br)c1)C(=O)O2 [Example 121, 3-(3-bromobenzyl)-8-(2-ethylsulfanylpyridine-3-carbonyl)-1-oxa-3,8-diazaspiro[4.5]decan-2-one] are the same in inhibition at 10 µM: 77% for the first, 77% for the second.

N#Cc1ccccc1CN1CC2(CCN(C(=O)CC3(CC(=O)O)CCCC3)CC2)OC1=O [Example 71, (1-{2-[3-(2-cyanobenzyl)-2-oxo-1-oxa-3,8-diazaspiro[4.5]dec-8-yl]-2-oxoethyl}cyclopentyl)acetic acid] and N#Cc1ccccc1CN1CC2(CCN(Cc3csc4ccc(Cl)cc34)CC2)OC1=O [Example 84, 2-[8-(5-chlorobenzo[b]thiophen-3-ylmethyl)-2-oxo-1-oxa-3,8-diazaspiro[4.5]dec-3-ylmethyl]benzonitrile] are the same in inhibition at 10 µM: 62% for the first, 62% for the second.

First: COc1ccc([N+](=O)[O-])cc1CN1CC2(CCN(CC(=O)Nc3cc(C)nn3C)CC2)OC1=O [Example 76, N-(2,5-dimethyl-2H-pyrazol-3-yl)-2-[3-(2-methoxy-5-nitrobenzyl)-2-oxo-1-oxa-3,8-diazaspiro[4.5]dec-8-yl]acetamide]
Second: COc1ccc([N+](=O)[O-])cc1CN1CC2(CCN(C(=O)c3cc(C(C)(C)C)oc3C)CC2)OC1=O [Example 125, 8-(5-tert-butyl-2-methylfuran-3-carbonyl)-3-(2-methoxy-5-nitrobenzyl)-1-oxa-3,8-diazaspiro[4.5]decan-2-one]
The inhibition at 10 µM of the first is lower: 51% for the first, 63% for the second.

Going from N#Cc1ccc(CN2CC3(CCN(C(=O)C4CC4c4ccccc4)CC3)OC2=O)cc1 (stereo not drawn) [Example 106, 4-[2-oxo-8-(2-phenylcyclopropanecarbonyl)-1-oxa-3,8-diazaspiro[4.5]dec-3-ylmethyl]benzonitrile] to CC(=O)c1cccc(NC(=O)N2CCC3(CC2)CN(Cc2ccc(C#N)cc2)C(=O)O3)c1 [Example 56, 3-(4-cyanobenzyl)-2-oxo-1-oxa-3,8-diazaspiro[4.5]decane-8-carboxylic acid (3-acetylphenyl)amide], the inhibition at 10 µM falls from 63% to 60%.

Going from O=C1OC2(CCN(C(=O)c3cccnc3Oc3ccccc3)CC2)CN1Cc1ccc(F)c(F)c1 [Example 146, 3-(3,4-difluorobenzyl)-8-(2-phenoxypyridine-3-carbonyl)-1-oxa-3,8-diazaspiro[4.5]decan-2-one] to COc1ccc([N+](=O)[O-])cc1CN1CC2(CCN(C(=O)c3cccnc3Oc3ccccc3)CC2)OC1=O [Example 140, 3-(2-methoxy-5-nitrobenzyl)-8-(2-phenoxypyridine-3-carbonyl)-1-oxa-3,8-diazaspiro[4.5]decan-2-one], the inhibition at 10 µM rises from 63% to 64%.

Compared with Cc1ccc(CN2CC3(CCN(C(=O)NCCc4ccccc4)CC3)OC2=O)cc1 [Example 45, 3-(4-methylbenzyl)-2-oxo-1-oxa-3,8-diazaspiro[4.5]decane-8-carboxylic acid phenethylamide], Cc1ccc(CS(=O)(=O)NC(Cc2ccccc2)C(=O)N2CCC3(CC2)CN(Cc2cccc(C#N)c2)C(=O)O3)cc1 (stereo not drawn) [Example 110, N-{1-benzyl-2-[3-(3-cyanobenzyl)-2-oxo-1-oxa-3,8-diazaspiro[4.5]dec-8-yl]-2-oxoethyl}-4-methylbenzylsulfonamide] is higher in inhibition at 10 µM: 51% for the first, 64% for the second.

First: COc1cccc(CC(=O)N2CCC3(CC2)CN(Cc2cc([N+](=O)[O-])ccc2OC)C(=O)O3)c1 [Example 145, 3-(2-methoxy-5-nitrobenzyl)-8-[2-(3-methoxyphenyl)acetyl]-1-oxa-3,8-diazaspiro[4.5]decan-2-one]
Second: COc1ccc([N+](=O)[O-])cc1CN1CC2(CCN(C(=O)Cc3ccc(OC)c(OC)c3)CC2)OC1=O [Example 150, 8-[2-(3,4-dimethoxyphenyl)acetyl]-3-(2-methoxy-5-nitrobenzyl)-1-oxa-3,8-diazaspiro[4.5]decan-2-one]
The inhibition at 10 µM of the first is lower: 77% for the first, 84% for the second.

First: Cc1cc(C)cc(CN2CC3(CCN(C(=S)NCC4CCCO4)CC3)OC2=O)c1 (stereo not drawn) [Example 4, 3-(3,5-dimethylbenzyl)-2-oxo-1-oxa-3,8-diazaspiro[4.5]decane-8-carbothioic acid (tetrahydrofuran-2-ylmethyl)amide]
Second: Cc1cc(C)cc(CN2CC3(CCN(C(=O)c4ccccn4)CC3)OC2=O)c1 [Example 119, 3-(3,5-dimethylbenzyl)-8-(pyridine-2-carbonyl)-1-oxa-3,8-diazaspiro[4.5]decan-2-one]
The inhibition at 10 µM of the first is higher: 76% for the first, 67% for the second.

First: CC(C)(C)OC(=O)NC(Cc1c[nH]c2ccccc12)C(=O)N1CCC2(CC1)CN(Cc1cccc(Br)c1)C(=O)O2 (stereo not drawn) [Example 66, [2-[3-(3-bromobenzyl)-2-oxo-1-oxa-3,8-diazaspiro[4.5]dec-8-yl]-1-(1H-indol-3-ylmethyl)-2-oxoethyl]carbamic acid tert-butyl ester]
Second: COc1cccc(CN2CC3(CCN(C(=O)c4ccc(OC)cc4OC)CC3)OC2=O)c1 [Example 112, 8-(2,4-dimethoxybenzoyl)-3-(3-methoxybenzyl)-1-oxa-3,8-diazaspiro[4.5]decan-2-one]
The inhibition at 10 µM of the first is lower: 53% for the first, 66% for the second.

First: COc1ccc([N+](=O)[O-])cc1CN1CC2(CCN(C(=O)Nc3cccc(C#N)c3)CC2)OC1=O [Example 51, 3-(2-methoxy-5-nitrobenzyl)-2-oxo-1-oxa-3,8-diazaspiro[4.5]decane-8-carboxylic acid (3-cyanophenyl)amide]
Second: CCSc1ncccc1C(=O)N1CCC2(CC1)CN(Cc1cc(C)cc(C)c1)C(=O)O2 [Example 99, 3-(3,5-dimethylbenzyl)-8-(2-ethylsulfanylpyridine-3-carbonyl)-1-oxa-3,8-diazaspiro[4.5]decan-2-one]
The inhibition at 10 µM of the first is higher: 89% for the first, 73% for the second.

Compared with O=C1OC2(CCN(C(=O)c3ccc(-c4ccccc4)cc3)CC2)CN1Cc1ccc(I)cc1 [Example 118, 8-(biphenyl-4-carbonyl)-3-(4-iodobenzyl)-1-oxa-3,8-diazaspiro[4.5]decan-2-one], Cc1cc(C)cc(CN2CC3(CCN(C(=O)c4c(F)ccc(C)c4F)CC3)OC2=O)c1 [Example 132, 8-(2,6-difluoro-3-methylbenzoyl)-3-(3,5-dimethylbenzyl)-1-oxa-3,8-diazaspiro[4.5]decan-2-one] is lower in inhibition at 10 µM: 66% for the first, 65% for the second.
